Assay results as given in the supplement of paper PMC10307832.

Columns and labels:
Assay in all cases: relative viability (nuclei count vs DMSO), 5 days (fraction); higher = more cells survive
[1] = system: A549
How it was run: (§1)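 Relative viability divides the nuclei count in treated wells by that in vehicle wells. Lung cancer cell lines were seeded in 1536-well plates, dosed by pin tool the next day, and fixed and stained after 5 days in one step with final 0.05% Triton X-100, 1% formaldehyde and 1 ug/ml Hoechst. Dosing was a single drug or a fixed anchor-drug dose plus five library-drug doses (not always all listed) in √10 steps, and values are medians of duplicate plates imaged at 4×.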

[2] = system: COR-L 105
How it was run: as §1

[3] = system: Calu-6
How it was run: as §1

[4] = system: EBC-1
How it was run: as §1

[5] = system: IA-LM
How it was run: as §1

[6] = system: LCLC-103H
How it was run: as §1

[7] = system: LK-2
How it was run: as §1

[8] = system: NCI-H1299
How it was run: as §1

[9] = system: NCI-H1355
How it was run: as §1

[10] = system: NCI-H1666
How it was run: as §1

[11] = system: NCI-H1703
How it was run: as §1

[12] = system: NCI-H520
How it was run: as §1

COc1cc2nccc(Oc3ccc(NC(=O)Nc4cc(C)on4)c(Cl)c3)c2cc1OC [Tivozanib] + CS(=O)(=O)N1CCN(Cc2cc3nc(-c4cccc5[nH]ncc45)nc(N4CCOCC4)c3s2)CC1 [Pictilisib] (partner 1 µM)
relative viability ([1]; first compound 0.005 µM): 0.49 | relative viability ([1]; first compound 0.01581 µM): 0.456 | relative viability ([1]; first compound 0.05 µM): 0.65 | relative viability ([1]; first compound 0.1581 µM): 0.451 | relative viability ([1]; first compound 0.5 µM): 0.571 | relative viability ([2]; first compound 0.01581 µM): 0.405 | relative viability ([2]; first compound 0.05 µM): 0.431 | relative viability ([2]; first compound 0.1581 µM): 0.347 | relative viability ([2]; first compound 0.5 µM): 0.317 | relative viability ([3]; first compound 0.005 µM): 0.969 | relative viability ([3]; first compound 0.01581 µM): 0.979 | relative viability ([3]; first compound 0.05 µM): 0.842 | relative viability ([3]; first compound 0.1581 µM): 0.798 | relative viability ([3]; first compound 0.5 µM): 0.823 | relative viability ([4]; first compound 0.005 µM): 0.367 | relative viability ([4]; first compound 0.01581 µM): 0.362 | relative viability ([4]; first compound 0.05 µM): 0.378 | relative viability ([4]; first compound 0.1581 µM): 0.25 | relative viability ([4]; first compound 0.5 µM): 0.401 | relative viability ([5]; first compound 0.005 µM): 0.308 | relative viability ([5]; first compound 0.01581 µM): 0.366 | relative viability ([5]; first compound 0.05 µM): 0.321 | relative viability ([5]; first compound 0.1581 µM): 0.316 | relative viability ([5]; first compound 0.5 µM): 0.574 | relative viability ([6]; first compound 0.005 µM): 0.58 | relative viability ([6]; first compound 0.01581 µM): 0.735 | relative viability ([6]; first compound 0.05 µM): 0.604 | relative viability ([6]; first compound 0.1581 µM): 0.602 | relative viability ([6]; first compound 0.5 µM): 0.591 | relative viability ([7]; first compound 0.005 µM): 0.574 | relative viability ([7]; first compound 0.01581 µM): 0.472 | relative viability ([7]; first compound 0.05 µM): 0.6 | relative viability ([7]; first compound 0.1581 µM): 0.459 | relative viability ([7]; first compound 0.5 µM): 0.909 | relative viability ([8]; first compound 0.005 µM): 0.687 | relative viability ([8]; first compound 0.01581 µM): 0.62 | relative viability ([8]; first compound 0.05 µM): 0.797 | relative viability ([8]; first compound 0.1581 µM): 0.789 | relative viability ([8]; first compound 0.5 µM): 0.615 | relative viability ([9]; first compound 0.005 µM): 0.381 | relative viability ([9]; first compound 0.01581 µM): 0.41 | relative viability ([9]; first compound 0.05 µM): 0.441 | relative viability ([9]; first compound 0.5 µM): 0.387 | relative viability ([10]; first compound 0.005 µM): 0.404 | relative viability ([10]; first compound 0.01581 µM): 0.393 | relative viability ([10]; first compound 0.05 µM): 0.384 | relative viability ([10]; first compound 0.1581 µM): 0.389 | relative viability ([10]; first compound 0.5 µM): 0.478 | relative viability ([11]; first compound 0.005 µM): 0.161 | relative viability ([11]; first compound 0.01581 µM): 0.236 | relative viability ([11]; first compound 0.05 µM): 0.253 | relative viability ([11]; first compound 0.1581 µM): 0.181 | relative viability ([11]; first compound 0.5 µM): 0.213 | relative viability ([12]; first compound 0.005 µM): 0.263 | relative viability ([12]; first compound 0.01581 µM): 0.256 | relative viability ([12]; first compound 0.05 µM): 0.295 | relative viability ([12]; first compound 0.1581 µM): 0.242 | relative viability ([12]; first compound 0.5 µM): 0.302

Nc1ccn([C@@H]2O[C@H](CO)[C@@H](O)[C@@H]2O)c(=O)n1 [Cytarabine] + C[C@]1(O)C[C@@H](c2nc(-c3ccc4ccc(-c5ccccc5)nc4c3)c3c(N)nccn32)C1 [Linsitinib] (partner 1 µM)
relative viability ([1]; first compound 0.005 µM): 0.579 | relative viability ([1]; first compound 0.01581 µM): 0.499 | relative viability ([1]; first compound 0.05 µM): 0.407 | relative viability ([1]; first compound 0.1581 µM): 0.0819 | relative viability ([1]; first compound 0.5 µM): 0.0375 | relative viability ([2]; first compound 0.005 µM): 0.815 | relative viability ([2]; first compound 0.01581 µM): 1.1 | relative viability ([2]; first compound 0.05 µM): 0.628 | relative viability ([2]; first compound 0.1581 µM): 0.443 | relative viability ([2]; first compound 0.5 µM): 0.359 | relative viability ([3]; first compound 0.005 µM): 0.928 | relative viability ([3]; first compound 0.01581 µM): 0.871 | relative viability ([3]; first compound 0.05 µM): 0.734 | relative viability ([3]; first compound 0.1581 µM): 0.444 | relative viability ([3]; first compound 0.5 µM): 0.283 | relative viability ([4]; first compound 0.005 µM): 0.742 | relative viability ([4]; first compound 0.01581 µM): 0.815 | relative viability ([4]; first compound 0.05 µM): 0.614 | relative viability ([4]; first compound 0.1581 µM): 0.461 | relative viability ([4]; first compound 0.5 µM): 0.296 | relative viability ([5]; first compound 0.005 µM): 0.326 | relative viability ([5]; first compound 0.01581 µM): 0.763 | relative viability ([5]; first compound 0.05 µM): 0.357 | relative viability ([5]; first compound 0.1581 µM): 0.243 | relative viability ([5]; first compound 0.5 µM): 0.201 | relative viability ([6]; first compound 0.005 µM): 0.976 | relative viability ([6]; first compound 0.01581 µM): 1.22 | relative viability ([6]; first compound 0.05 µM): 1.12 | relative viability ([6]; first compound 0.1581 µM): 1.09 | relative viability ([6]; first compound 0.5 µM): 1.18 | relative viability ([7]; first compound 0.005 µM): 0.494 | relative viability ([7]; first compound 0.01581 µM): 0.58 | relative viability ([7]; first compound 0.05 µM): 0.247 | relative viability ([7]; first compound 0.1581 µM): 0.215 | relative viability ([7]; first compound 0.5 µM): 0.162 | relative viability ([8]; first compound 0.005 µM): 0.928 | relative viability ([8]; first compound 0.01581 µM): 1.07 | relative viability ([8]; first compound 0.05 µM): 1 | relative viability ([8]; first compound 0.1581 µM): 1.05 | relative viability ([8]; first compound 0.5 µM): 0.886 | relative viability ([9]; first compound 0.005 µM): 0.788 | relative viability ([9]; first compound 0.01581 µM): 0.8 | relative viability ([9]; first compound 0.05 µM): 0.627 | relative viability ([9]; first compound 0.1581 µM): 0.451 | relative viability ([9]; first compound 0.5 µM): 0.32 | relative viability ([10]; first compound 0.005 µM): 0.774 | relative viability ([10]; first compound 0.01581 µM): 0.876 | relative viability ([10]; first compound 0.05 µM): 0.703 | relative viability ([10]; first compound 0.1581 µM): 0.344 | relative viability ([10]; first compound 0.5 µM): 0.305 | relative viability ([11]; first compound 0.005 µM): 0.339 | relative viability ([11]; first compound 0.01581 µM): 0.346 | relative viability ([11]; first compound 0.05 µM): 0.166 | relative viability ([11]; first compound 0.1581 µM): 0.107 | relative viability ([11]; first compound 0.5 µM): 0.0904 | relative viability ([12]; first compound 0.005 µM): 0.556 | relative viability ([12]; first compound 0.01581 µM): 1.09 | relative viability ([12]; first compound 0.05 µM): 0.952 | relative viability ([12]; first compound 0.1581 µM): 0.751 | relative viability ([12]; first compound 0.5 µM): 0.752
